Laboratory results reported in patent US12612412B2, “Antiviral heterocyclic compounds” (Enanta Pharmaceuticals, Inc., priority 2021, dated 2026).

What follows are compounds tested on genotype A, "Long" strain RSV (assay: RSV-A assay (CPE protection in Hep-2 cells, ATPlite readout)). Details: human respiratory syncytial virus, genotype A “Long” strain RSV, MOI 0.1, CPE protection, read-out: Human RSV-A (“Long”).
Assay type: cell-based, Human respiratory syncytial virus (HRSV)
Outline: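 Compound effect on RSV-induced CPE: Hep-2 monolayers, MOI 0.1, duplicate 2-fold titrations, 5-day culture in 10% FBS DMEM. Readout is ATP-based luminescence, normalised to virus-only and no-virus controls, giving EC50.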
For `COc1cccc2oc(C(=O)NC[C@](O)(c3cc4c(c(-c5ccc(F)cc5)n3)OC[C@]4(C)C(N)=O)C(F)(F)F)cc12` [Example 430], the EC50 was > 200 nM. For `Cc1ncc(C(=O)NC[C@](O)(c2cc3c(c(-c4ccc(F)cc4)n2)OC[C@]3(C)C(N)=O)C(F)(F)F)s1` [Example 431], the EC50 was > 200 nM. In the case of `Cc1cc(C(=O)NC[C@](O)(c2cc3c(c(-c4ccc(F)cc4)n2)OC[C@]3(C)C(N)=O)C(F)(F)F)c2ccccc2n1` [Example 432], the EC50 is reported as > 200 nM. `C[C@]1(C(N)=O)COc2c1cc([C@@](O)(CNC(=O)c1ccn3nccc3n1)C(F)(F)F)nc2-c1ccc(F)cc1` [Example 433] was tested, and the EC50 was > 200 nM. With `C[C@]1(C(N)=O)COc2c1cc([C@@](O)(CNC(=O)c1cc3cc(F)ccc3s1)C(F)(F)F)nc2-c1ccc(F)cc1` [Example 434] the EC50 was > 200 nM. For `Cc1c(C(=O)NC[C@](O)(c2cc3c(c(-c4ccc(F)cc4)n2)OC[C@]3(C)C(N)=O)C(F)(F)F)sc2ccccc12` [Example 435], the EC50 was > 200 nM. For `C[C@]1(C(N)=O)COc2c1cc([C@@](O)(CNC(=O)c1cnc3cnccn13)C(F)(F)F)nc2-c1ccc(F)cc1` [Example 436], the EC50 was > 200 nM. `CC(C)c1csc(C(=O)NC[C@](O)(c2cc3c(c(-c4ccc(F)cc4)n2)OC[C@]3(C)C(N)=O)C(F)(F)F)n1` [Example 437] was tested, and the EC50 was > 200 nM. With `C[C@]1(C(N)=O)COc2c1cc([C@@](O)(CNC(=O)c1ccc3[nH]ccc3c1F)C(F)(F)F)nc2-c1ccc(F)cc1` [Example 438] the EC50 was > 200 nM. For `C[C@]1(C(N)=O)COc2c1cc([C@@](O)(CNC(=O)c1cnn3ccncc13)C(F)(F)F)nc2-c1ccc(F)cc1` [Example 439], the EC50 was > 200 nM. For `COc1cc2ccc(C(=O)NC[C@](O)(c3cc4c(c(-c5ccc(F)cc5)n3)OC[C@]4(C)C(N)=O)C(F)(F)F)cc2cc1OC` [Example 440], the EC50 was < 200 nM. `COC(=O)C12CC(C(=O)NC[C@](O)(c3cc4c(c(-c5ccc(F)cc5)n3)OC[C@]4(C)C(N)=O)C(F)(F)F)(C1)C2` [Example 442] was tested, and the EC50 was > 200 nM. `C[C@]1(C(N)=O)COc2c1cc([C@@](O)(CNC(=O)c1cn(-c3ccccc3)nc1-c1ccccc1)C(F)(F)F)nc2-c1ccc(F)cc1` [Example 443] was tested, and the EC50 was > 200 nM. `C[C@]1(C(N)=O)COc2c1cc([C@@](O)(CNC(=O)c1cnn(-c3ccccc3)c1)C(F)(F)F)nc2-c1ccc(F)cc1` [Example 444] was tested, and the EC50 was < 200 nM. In the case of `Cn1cc(C(=O)NC[C@](O)(c2cc3c(c(-c4ccc(F)cc4)n2)OC[C@]3(C)C(N)=O)C(F)(F)F)c(-c2ccccc2)n1` [Example 445], the EC50 is reported as > 200 nM. With `C[C@]1(C(N)=O)COc2c1cc([C@@](O)(CNC(=O)c1c[nH]nc1-c1ccccc1)C(F)(F)F)nc2-c1ccc(F)cc1` [Example 446] the EC50 was > 200 nM. In the case of `COc1cccc(-c2nn(-c3ccccc3)cc2C(=O)NC[C@](O)(c2cc3c(c(-c4ccc(F)cc4)n2)OC[C@]3(C)C(N)=O)C(F)(F)F)c1` [Example 447], the EC50 is reported as > 200 nM. In the case of `COc1cccc(-c2n[nH]cc2C(=O)NC[C@](O)(c2cc3c(c(-c4ccc(F)cc4)n2)OC[C@]3(C)C(N)=O)C(F)(F)F)c1` [Example 448], the EC50 is reported as > 200 nM. `COc1cccc(-n2cc(C(=O)NC[C@](O)(c3cc4c(c(-c5ccc(F)cc5)n3)OC[C@]4(C)C(N)=O)C(F)(F)F)cn2)c1` [Example 449] was tested, and the EC50 was > 200 nM. `COc1ccc(-n2cc(C(=O)NC[C@](O)(c3cc4c(c(-c5ccc(F)cc5)n3)OC[C@]4(C)C(N)=O)C(F)(F)F)cn2)cc1` [Example 450] was tested, and the EC50 was > 200 nM. With `C[C@]1(C(N)=O)COc2c1cc([C@@](O)(CNC(=O)c1cnn(-c3ccc(F)cc3)c1)C(F)(F)F)nc2-c1ccc(F)cc1` [Example 451] the EC50 was > 200 nM. `Cc1nn(-c2ccccc2)cc1C(=O)NC[C@](O)(c1cc2c(c(-c3ccc(F)cc3)n1)OC[C@]2(C)C(N)=O)C(F)(F)F` [Example 452] was tested, and the EC50 was < 200 nM. `Cc1nn(-c2ccccc2)c(C)c1C(=O)NC[C@](O)(c1cc2c(c(-c3ccc(F)cc3)n1)OC[C@]2(C)C(N)=O)C(F)(F)F` [Example 453] was tested, and the EC50 was > 200 nM. For `C[C@]1(C(N)=O)COc2c1cc([C@@](O)(CNC(=O)c1cnn(-c3ccccc3F)c1)C(F)(F)F)nc2-c1ccc(F)cc1` [Example 454], the EC50 was < 200 nM.
